Assay results as given in patent US20230183193A1, “4-DIFLUOROMETHYL BENZOYL AMIDES WITH HERBICIDAL ACTION” (BAYER CROPSCIENCE AKTIENGESELLSCHAFT, priority 2017, published 2023).

Tests used:
Format in all cases: in vivo
Abutilon theophrasti [1] = experiment: Pre-emergence herbicidal action, ABUTH; conditions: dosage 320 g/ha, scored visually after 3 weeks vs untreated controls
Summary of the method: (§1)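 Percent herbicidal activity rated by eye 3 weeks after pre-emergence soil-surface application, compared with untreated pots. Seeds sat under sandy loam; sprays carried 0.2% wetting agent.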

Alopecurus myosuroides [2] = experiment: Pre-emergence herbicidal action, ALOMY; conditions: dosage 320 g/ha, scored visually after 3 weeks vs untreated controls
Summary of the method: as §1

Amaranthus retroflexus [3] = experiment: Pre-emergence herbicidal action, AMARE; conditions: dosage 320 g/ha, scored visually after 3 weeks vs untreated controls
Summary of the method: as §1

Avena fatua [4] = experiment: Pre-emergence herbicidal action, AVEFA; conditions: dosage 320 g/ha, scored visually after 3 weeks vs untreated controls
Summary of the method: as §1

Cyperus serotinus = experiment: Pre-emergence herbicidal action, CYPES; conditions: dosage 320 g/ha, scored visually after 3 weeks vs untreated controls
Summary of the method: as §1

Matricaria inodora = experiment: Pre-emergence herbicidal action, MATIN; conditions: dosage 320 g/ha, scored visually after 3 weeks vs untreated controls
Summary of the method: as §1

Setaria viridis [5] = experiment: Pre-emergence herbicidal action, SETVI; conditions: dosage 320 g/ha, scored visually after 3 weeks vs untreated controls
Summary of the method: as §1

Stellaria media [6] = experiment: Pre-emergence herbicidal action, STEME; conditions: dosage 320 g/ha, scored visually after 3 weeks vs untreated controls
Summary of the method: as §1

Viola tricolor [7] = experiment: Pre-emergence herbicidal action, VIOTR; conditions: dosage 320 g/ha, scored visually after 3 weeks vs untreated controls
Summary of the method: as §1

Abutilon theophrasti [8] = experiment: Post-emergence herbicidal action, ABUTH; conditions: 80 g/ha, Table D
Summary of the method: (§2)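 Herbicidal effect is rated visually as percent versus untreated plants (100% = dead, 0% = like control) about 3 weeks after spraying. Plants were sown in sandy loam in the greenhouse and sprayed on green parts at the one-leaf stage, 2 to 3 weeks post-sowing.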

Alopecurus myosuroides [9] = experiment: Post-emergence herbicidal action, ALOMY; conditions: 80 g/ha, Table C
Summary of the method: as §2

Amaranthus retroflexus [10] = experiment: Post-emergence herbicidal action, AMARE; conditions: 80 g/ha, Table D
Summary of the method: as §2

Avena fatua [11] = experiment: Post-emergence herbicidal action, AVEFA; conditions: 80 g/ha, Table C
Summary of the method: as §2

Pharbitis purpureum = experiment: Post-emergence herbicidal action, PHBPU; conditions: 80 g/ha, Table D
Summary of the method: as §2

Setaria viridis [12] = experiment: Post-emergence herbicidal action, SETVI; conditions: 80 g/ha, Table C
Summary of the method: as §2

Stellaria media [13] = experiment: Post-emergence herbicidal action, STEME; conditions: 80 g/ha, Table D
Summary of the method: as §2

Viola tricolor [14] = experiment: Post-emergence herbicidal action, VIOTR; conditions: 80 g/ha, Table D
Summary of the method: as §2

ECHCG = experiment: Post-emergence herbicidal action, ECHCG; conditions: 80 g/ha, Table C
Summary of the method: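 Weed and crop plants grown in sandy loam in the greenhouse, treated at the one-leaf stage 2–3 weeks after sowing. Damage scored visually after about 3 weeks vs untreated controls (0% = control, 100% = dead).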

Row | Compound | herbicidal activity ABUTH (Abutilon theophrasti [1]) [%] | herbicidal activity ALOMY (Alopecurus myosuroides [2]) [%] | herbicidal activity AMARE (Amaranthus retroflexus [3]) [%] | herbicidal activity AVEFA (Avena fatua [4]) [%] | herbicidal activity CYPES (Cyperus serotinus) [%] | herbicidal activity MATIN (Matricaria inodora) [%] | herbicidal activity SETVI (Setaria viridis [5]) [%] | Herbicidal activity STEME (Stellaria media [6]) [%] | herbicidal activity VIOTR (Viola tricolor [7]) [%] | herbicidal activity ABUTH (Abutilon theophrasti [8]) [%] | herbicidal activity ALOMY (Alopecurus myosuroides [9]) [%] | herbicidal activity AMARE (Amaranthus retroflexus [10]) [%] | herbicidal activity AVEFA (Avena fatua [11]) [%] | Herbicidal activity PHBPU (Pharbitis purpureum) [%] | herbicidal activity SETVI (Setaria viridis [12]) [%] | Herbicidal activity STEME (Stellaria media [13]) [%] | herbicidal activity VIOTR (Viola tricolor [14]) [%] | Herbicidal activity ECHCG (ECHCG) [%]
1 | CCc1c(C(=O)Nc2nnnn2CC)ccc(C(F)F)c1SC [Example 2-13] | 100 | 100 | 100 | 100 | 100 | 100 | 100 | 100 | 100 | 100 | 80 | 100 | 90 | 100 | 100 | 100 | 100 | 90
2 | CSc1c(C(F)F)ccc(C(=O)Nc2nnnn2C)c1F [Example 1-37] | 100 | 100 | 100 | 100 | 100 | 100 | 100 | 100 | 100 | 90 | 80 | 100 | 100 | 90 | 100 | 100 | 100 | 100
3 | CCn1nnnc1NC(=O)c1ccc(C(F)F)c([S+](C)[O-])c1Br (stereo not drawn) [Example 2-62] | 100 | 100 | 100 | 100 | 100 | 100 | 100 | 100 | 100 | 100 | 90 | 100 | 100 | 100 | 100 | 100 | 100 | 100
4 | CCSc1c(C(F)F)ccc(C(=O)Nc2nnnn2CC)c1CC [Example 2-16] | 100 | 100 | 100 | 100 | 100 | 100 | 100 | 100 | 100 | 100 | 90 | 100 | 90 | 100 | 90 | 100 | 100 | 90
5 | CCn1nnnc1NC(=O)c1ccc(C(F)F)c([S+](C)[O-])c1C1CC1 (stereo not drawn) [Example 2-26] | 100 | 100 | 100 | 100 | 90 | 100 | 100 | 100 | 100 | 90 | 90 | 100 | 100 | 90 | 100 | 100 | 100 | 100
6 | CCc1c(C(=O)Nc2nnnn2CC)ccc(C(F)F)c1[S+]([O-])CC (stereo not drawn) [Example 2-17] | 100 | 100 | 100 | 100 | 100 | 100 | 100 | 100 | 100 | 100 | 90 | 100 | 100 | 100 | 90 | 100 | 100 | 90
7 | CCSc1c(C(F)F)ccc(C(=O)Nc2nnnn2C)c1Br [Example 1-64] | 100 | 100 | 100 | 100 | 100 | 100 | 100 | 100 | 100 | 100 | 90 | 100 | 100 | 100 | 90 | 100 | 100 | 90
8 | CCn1nnnc1NC(=O)c1ccc(C(F)F)c(S(=O)(=O)CC)c1C1CC1 [Example 2-30] | 100 | 100 | 100 | 100 | 90 | 100 | 100 | 100 | 100 | 100 | 90 | 100 | 90 | 90 | 100 | 100 | 100 | 100
9 | CCn1nnnc1NC(=O)c1ccc(C(F)F)c(SC)c1Br [Example 2-61] | 100 | 100 | 100 | 100 | 100 | 100 | 100 | 100 | 100 | 100 | 90 | 90 | 90 | 100 | 90 | 100 | 100 | 90
10 | Cn1nnnc1NC(=O)c1ccc(C(F)F)c([S+](C)[O-])c1C1CC1 (stereo not drawn) [Example 1-26] | 100 | 100 | 100 | 100 | 100 | 100 | 100 | 100 | 100 | 100 | 90 | 100 | 100 | 90 | 100 | 100 | 100 | 100
11 | CCSc1c(C(F)F)ccc(C(=O)Nc2nnnn2C)c1F [Example 1-40] | 100 | 100 | 100 | 90 | 100 | 100 | 100 | 100 | 100 | 100 | 90 | 100 | 80 | 100 | 100 | 90 | 90 | 100
